From US20260133203A1, “DETECTION OF FUMARATE-DERIVED MODIFICATION IN A TEST SAMPLE” (UNIVERSITY OF SOUTH CAROLINA, priority 2017, published 2026)
Structures can show the parent of a compound that is named as a salt.

System: rat primary neurons
Assay: Western blot detection of succinated proteins with anti-2SC antibody, without ester hydrolysis
Assay type: cell-based
Conditions: 100 μM DMF, 24 hours, absence of ester hydrolysis
Protocol: Primary neurons from newborn rat brain cortices were isolated and cultured using an adaptation of methods described previously. Briefly, postnatal day 1 rats were sacrificed by decapitation, the brains were aseptically dissected, and cortices were separated from the rest of the brain in ice-cold Hibernate®-A medium (Life Technologies) containing 2% (v/v) B-27 supplement (Life Technologies) and 0.5 mM glutamine (Invitrogen™). The tissue was minced in fragments of about 1 mm3 with a scalpel and subjected to digestion with 2 mg/ml papain (Worthington) in the supplemented Hibernate®-A medium for 20 minutes at 30° C. in a shaker incubator set at 100 rpm. After thorough trituration through a fire-polished Pasteur pipette, the tissue was allowed to settle for 5 minutes and the supernatant was carefully layered on top of a discontinuous OptiPrep™ (Sigma-Aldrich™) gradient prepared in Hibernate®-A medium; the layers contained 35, 25, 20 and 15% OptiPrep™. […] After a centrifugation at 500 g for 5 min at room temperature, cells were resuspended in Neurobasal™—A medium containing 0.5 mM glutamine, 2% B-27 supplement, and 5 ng/ml bFGF (Invitrogen™); counted and plated on 24-well plates pretreated with 0.01% poly-L-lysine (Sigma-Aldrich™) at a density of 200,000 cells/well. […] The protein content in the different samples was determined by the Lowry assay. […]

`COC(=O)/C=C/C(=O)OC` [DMF, dimethyl fumarate] was tested, and the “detection of succinated proteins using the anti-2SC antibody” value was “only one band ˜50 kDa showing a significant increase in intensity”.
